This is an account of results in patent US8399214B2 (Evonik Degussa GmbH, priority 2005, dated 2013).

Where “and” joins values, the source holds several entries; their conditions need not be identical. Identical values can stand only once. Like-named read-outs stand apart in the source and are kept apart here.

One data set concerns microorganisms. The following applies: gaseous state; cited from earlier work.
Data set [1] deals with C. glutamicum M2014. The data set can be described thus: Test tube growth in methionine-free medium with Amberlite XAD4 as DMDS delivery system. The following applies: M2014, XAD4. How it is done:
(§1) To this end, test tube experiments using 5 ml of medium were performed on OM63 and M2014.
(§2) To each test tube 100 μl of a sterile suspension of XAD4 in water (50% v/v) was added.

Data set [2] has as its system C. glutamicum OM63 (ΔmetF). As for the experimental part:
as §1, §2

Data set [3] relates to C. glutamicum OM246C (ΔmetH, ΔmetE). It is filed as cell-based. The following applies: 24 hours at 30° C. An excerpt: (§3) Other possible delivery systems include synthetic oils, organic solvents, chloro-carbons, fluoro-carbons, or chloro-fluoro-carbons.
The subject of data set [4] is C. glutamicum OM101 (ΔmetF, ΔmetB). The settings on record: Met 100 mg/ml, XAD4, 60 hours at 30° C.
Procedure: (§5) A test tube experiment was performed with M2014 derivatives that contain different combinations of deletions of metY, metB, and metF. […] The inoculum was approximately 5×10^3 cells per tube. Cells were grown at 30° C. in a platform shaker for 60 hours, and cell densities were measured at OD600.
For data set [5], the system named is C. glutamicum M2014 (parent). Nature of the data set: Test tube growth in methionine-free medium, DMDS added directly. The settings on record: M2014; MF + Met 40 mg/l; 36 hours at 30° C. An excerpt:
(§4) M2014 was transformed with plasmid pOM86 (FIG. 9) (SEQ ID NO:8) to yield a “Campbell in” strain. The “Campbell in” strain was then “Cambelled out” to yield a “Campbell out” strain named OM63.

Data set [6] relates to C. glutamicum OM174 (ΔmetF, ΔmetB, ΔmetY). The settings on record: Met 100 mg/ml, XAD4, 60 hours at 30° C.
Procedure: as §5
In data set [7] the test system is C. glutamicum M2014. Nature of the data set: Test tube growth in methionine-free medium with canola oil as DMDS delivery system. The format is cell-based. The settings on record: 24 hours at 30° C.
Excerpt: as §3

The test system of data set [8] is C. glutamicum OM246C (ΔmetH, ΔmetE). The settings on record: OM246C, 24 hours at 30° C.
Excerpt: as §3

The test system of data set [9] is C. glutamicum M2014. The data set can be described thus: Test tube growth in methionine-free medium with mineral oil as DMDS delivery system. The settings on record: MF + Met 100 mg/l, no oil, 24 hours at 30° C.
Excerpt: as §3

Data set [10] deals with C. glutamicum OM63 (ΔmetF). It is filed as cell-based. The following applies: MF + Met 40 mg/l, 36 hours at 30° C.
Excerpt: as §4

Data set [11] relates to C. glutamicum OM158 (ΔmetF, ΔmetY). The following applies: Met 100 mg/ml, XAD4, 60 hours at 30° C.
Procedure: as §5
Data set [12] has as its system C. glutamicum OM246C (ΔmetE, ΔmetH). It is filed as cell-based. The settings on record: met 100 mg/l, XAD4, 24 hours at 30° C. How it is done: as §2
In data set [13] the test system is C. glutamicum OM101C (ΔmetF, ΔmetB). The format is cell-based. The settings on record: met 100 mg/l, XAD4, 24 hours at 30° C. How it is done: as §2

With `C[Se][Se]C` [DMDSe, dimethyldiselenide], the toxicity to microorganisms result in the data set on microorganisms is given as “toxic to microorganisms in a gaseous state”.

For `CSCC[C@H](N)C(=O)O` [Met, methionine, reference compound], the “Optical densities at 600 nm” value was 7.1 with C. glutamicum M2014 [1] (Met 40 mg/l, 42 hours at 30° C.); 4.4 and 4.7 with C. glutamicum M2014 [1] (met 100 mg/l, 24 hours at 30° C.); 4.4 in [2] (Met 40 mg/l, XAD4, 42 hours at 30° C.); 2.4 and 3.0 in [2] (met 100 mg/l, XAD4, 24 hours at 30° C.); 4.9 and 4.7 in data set [3] (MF + Met 100 mg/l, no oil); 3.7 and 3.0 in data set [3] (MF + Met + Canola Oil). The “Optical densities at 600 nm” value in data set [5] was 5.8; with C. glutamicum M2014 [7] (MF + Met 100 mg/l, no oil), 4.6 and 4.8; in the data set with C. glutamicum M2014 [7] (MF + Met + Canola Oil), 3.8 and 3.5; in [8] (MF + Met 100 mg/l, no oil), 4.9 and 4.7; in [8] (MF + Met + Mineral Oil), 1.5 and 1.8; in the data set on C. glutamicum M2014 [9], 4.6 and 4.8. Besides, the “Optical densities at 600 nm” value in data set [10] is 5.2; in [12] it was 3.9 and 4.3; in data set [13] it was 1.9 and 2.1. The OD600 is 2.2 and 2.3 with C. glutamicum M2014 [1] (Met 100 mg/ml, 60 hours at 30° C.); 1.6 and 1.9 in data set [2] (Met 100 mg/ml, XAD4, 60 hours at 30° C.); 1.8 in data set [4]; 1.5 and 1.2 in data set [6]; 3.2 and 2.7 in data set [11].
